The source made the active and inactive calls. The calls are words filed in the database; no cut-off is given here.
Experiments:
Acetylcholinesterase [1] = target: Acetylcholinesterase (Electrophorus electricus, UniProt O42275); assay: Inhibition of electric eel AChE using acetylthiocholine chloride as substrate after 15 mins by Ellman spectrophotometric method
Cholinesterase = Cholinesterase (Equus caballus, UniProt P81908); assay: Inhibition of equine serum BChE using acetylthiocholine chloride as substrate after 15 mins by Ellman spectrophotometric method
[2] = Antioxidant activity assessed as Trolox equivalent per microM of compound after 15 mins by oxygen radical absorbance capacity fluorescein assay; format: physicochemical; conditions: 0.25 h
[3] = target: Amyloid-beta precursor protein (Homo sapiens) (UniProt P05067); assay: Inhibition of self-induced Abeta(1 to 42) (unknown origin) aggregation at 25 uM after 24 hrs by Thioflavin T-based fluorometric assay
Acetylcholinesterase [4] = target: Acetylcholinesterase (Homo sapiens, UniProt P22303); assay: Inhibition of human erythrocyte AChE using acetylthiocholine chloride as substrate after 15 mins by Ellman spectrophotometric method
[5] = Selectivity index, ratio of IC50 for equine serum BChE to IC50 for electric eel AChE
PC-12 = assay: Protective activity against H2O2-induced rat PC12 cell injury assessed as cell viability incubated at 5 uM for 3 hrs before H2O2 addition measured after 5 hrs by MTT assay relative to untreated control; format: functional; conditions: read-out: Activity
[6] = target: Acetylcholinesterase (Electrophorus electricus) (UniProt O42275); assay: Mixed-type inhibition of electric eel AChE using acetylthiocholine chloride as substrate after 15 mins by Lineweaver-Burk plot method
[7] = Permeability of the compound in DMSO-PBS/EtOH solution at 100 ug/ml by PAMPA; format: ADME; conditions: read-out: permeability

Sequence of Cholinesterase (P81908 whole entry): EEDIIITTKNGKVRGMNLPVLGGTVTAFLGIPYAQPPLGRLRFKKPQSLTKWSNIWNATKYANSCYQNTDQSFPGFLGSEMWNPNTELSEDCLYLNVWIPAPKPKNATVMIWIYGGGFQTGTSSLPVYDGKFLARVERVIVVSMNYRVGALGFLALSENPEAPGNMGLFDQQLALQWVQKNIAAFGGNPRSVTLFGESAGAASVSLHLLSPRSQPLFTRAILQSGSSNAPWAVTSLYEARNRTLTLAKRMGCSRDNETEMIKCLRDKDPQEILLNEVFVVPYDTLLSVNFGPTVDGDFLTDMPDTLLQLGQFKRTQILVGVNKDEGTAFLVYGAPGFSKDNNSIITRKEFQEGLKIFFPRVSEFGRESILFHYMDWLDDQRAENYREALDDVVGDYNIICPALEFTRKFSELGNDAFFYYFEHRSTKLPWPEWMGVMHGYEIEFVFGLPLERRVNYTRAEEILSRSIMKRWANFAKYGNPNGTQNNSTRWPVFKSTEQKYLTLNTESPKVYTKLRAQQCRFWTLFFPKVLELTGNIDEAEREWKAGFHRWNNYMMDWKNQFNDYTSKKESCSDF
Sequence of Amyloid-beta precursor protein (Homo sapiens) (P05067 whole entry): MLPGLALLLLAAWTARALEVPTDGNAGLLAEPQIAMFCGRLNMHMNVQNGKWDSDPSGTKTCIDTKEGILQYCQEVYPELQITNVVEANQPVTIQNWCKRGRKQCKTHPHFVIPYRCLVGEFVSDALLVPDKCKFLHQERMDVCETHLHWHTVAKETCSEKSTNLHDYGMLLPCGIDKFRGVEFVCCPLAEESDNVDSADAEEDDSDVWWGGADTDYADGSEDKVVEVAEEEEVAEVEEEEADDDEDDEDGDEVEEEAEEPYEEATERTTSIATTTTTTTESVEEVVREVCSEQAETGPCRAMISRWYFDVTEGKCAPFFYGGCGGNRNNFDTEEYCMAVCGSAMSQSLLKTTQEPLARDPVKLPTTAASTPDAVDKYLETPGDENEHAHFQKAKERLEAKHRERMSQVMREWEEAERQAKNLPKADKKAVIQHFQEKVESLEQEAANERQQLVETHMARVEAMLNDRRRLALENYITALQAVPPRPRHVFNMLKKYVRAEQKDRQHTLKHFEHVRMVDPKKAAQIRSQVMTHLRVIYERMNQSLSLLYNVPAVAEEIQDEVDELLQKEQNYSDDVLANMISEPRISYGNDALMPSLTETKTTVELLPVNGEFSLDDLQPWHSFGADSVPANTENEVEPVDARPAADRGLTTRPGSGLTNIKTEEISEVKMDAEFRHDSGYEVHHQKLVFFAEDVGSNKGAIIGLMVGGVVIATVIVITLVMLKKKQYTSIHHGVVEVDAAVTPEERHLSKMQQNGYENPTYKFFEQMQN
Sequence of Acetylcholinesterase (Homo sapiens, UniProt P22303) (P22303 whole entry): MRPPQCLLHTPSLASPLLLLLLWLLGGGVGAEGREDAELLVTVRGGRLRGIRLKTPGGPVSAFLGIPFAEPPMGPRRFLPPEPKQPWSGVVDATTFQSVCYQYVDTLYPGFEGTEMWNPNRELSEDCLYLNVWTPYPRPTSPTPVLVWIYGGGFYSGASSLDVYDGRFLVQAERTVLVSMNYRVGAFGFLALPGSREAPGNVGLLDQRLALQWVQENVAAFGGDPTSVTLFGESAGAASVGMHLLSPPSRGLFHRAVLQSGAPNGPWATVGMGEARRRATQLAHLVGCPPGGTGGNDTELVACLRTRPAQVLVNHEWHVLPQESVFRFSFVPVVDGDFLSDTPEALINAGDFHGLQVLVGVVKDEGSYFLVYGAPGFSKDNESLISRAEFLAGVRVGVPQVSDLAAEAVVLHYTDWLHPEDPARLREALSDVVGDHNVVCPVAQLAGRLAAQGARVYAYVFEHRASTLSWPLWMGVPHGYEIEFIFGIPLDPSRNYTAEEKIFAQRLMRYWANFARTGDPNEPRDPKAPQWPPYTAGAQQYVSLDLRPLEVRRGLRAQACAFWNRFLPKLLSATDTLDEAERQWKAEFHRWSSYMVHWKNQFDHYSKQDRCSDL
Sequence of Acetylcholinesterase (Electrophorus electricus, UniProt O42275) (O42275 whole entry): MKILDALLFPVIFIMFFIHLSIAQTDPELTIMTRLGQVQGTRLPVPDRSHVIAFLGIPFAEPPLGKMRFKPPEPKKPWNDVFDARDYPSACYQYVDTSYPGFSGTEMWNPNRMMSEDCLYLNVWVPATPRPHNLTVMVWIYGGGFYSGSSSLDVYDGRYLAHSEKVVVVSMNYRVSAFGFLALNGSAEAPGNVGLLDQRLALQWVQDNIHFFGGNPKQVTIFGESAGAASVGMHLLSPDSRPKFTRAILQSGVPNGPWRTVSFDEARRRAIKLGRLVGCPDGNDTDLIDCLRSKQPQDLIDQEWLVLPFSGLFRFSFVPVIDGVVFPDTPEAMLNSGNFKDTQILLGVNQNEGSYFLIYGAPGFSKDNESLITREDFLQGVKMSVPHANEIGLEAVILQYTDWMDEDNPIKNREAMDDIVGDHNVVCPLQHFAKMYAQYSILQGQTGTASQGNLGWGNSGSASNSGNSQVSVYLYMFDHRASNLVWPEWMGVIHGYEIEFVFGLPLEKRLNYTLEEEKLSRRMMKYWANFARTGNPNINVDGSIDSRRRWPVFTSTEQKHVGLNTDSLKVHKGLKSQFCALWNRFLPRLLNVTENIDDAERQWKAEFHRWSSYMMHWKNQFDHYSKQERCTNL
Sequence of Acetylcholinesterase (Electrophorus electricus) (O42275 24-633 limits assumed): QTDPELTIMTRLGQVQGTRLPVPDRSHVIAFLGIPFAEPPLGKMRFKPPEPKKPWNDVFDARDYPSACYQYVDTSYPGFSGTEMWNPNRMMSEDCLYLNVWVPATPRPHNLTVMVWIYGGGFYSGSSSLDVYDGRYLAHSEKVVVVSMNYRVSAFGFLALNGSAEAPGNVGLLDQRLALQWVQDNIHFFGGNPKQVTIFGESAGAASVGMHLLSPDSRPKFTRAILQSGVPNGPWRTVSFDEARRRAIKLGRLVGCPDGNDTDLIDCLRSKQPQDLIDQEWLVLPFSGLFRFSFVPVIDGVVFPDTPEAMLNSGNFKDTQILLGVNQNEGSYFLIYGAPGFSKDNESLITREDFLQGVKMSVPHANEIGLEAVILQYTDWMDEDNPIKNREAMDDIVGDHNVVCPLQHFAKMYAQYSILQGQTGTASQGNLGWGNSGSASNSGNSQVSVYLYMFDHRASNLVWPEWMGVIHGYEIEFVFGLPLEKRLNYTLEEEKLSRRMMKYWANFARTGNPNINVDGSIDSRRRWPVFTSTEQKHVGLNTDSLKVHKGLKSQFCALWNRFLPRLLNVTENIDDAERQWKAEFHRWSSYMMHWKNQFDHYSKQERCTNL

| Structure (SMILES) | IC50 (Acetylcholinesterase [1]) [nM] | IC50 (Cholinesterase) [nM] | fold change (Trolox equivalents (ORAC)) [2] | inhibition [3] [%] | IC50 (Acetylcholinesterase [4]) [nM] | Ratio IC50 [5] | fold change (FC) [2] | viability at 5 µM (PC-12) [%] | inhibition [6] | Papp at 100 ug/ml [7] [×10⁻⁶ cm/s] |
| --- | --- | --- | --- | --- | --- | --- | --- | --- | --- | --- |
| COc1cc2oc(-c3cccc(O)c3)cc(=O)c2c(OC)c1OC | > 100000 | > 100000 | 3.6 | 17.4 |  |  |  |  |  |  |
| COc1cc2oc(-c3cccc(OCC(=O)NCCCCCCNc4c5c(nc6cc(Cl)ccc46)CCCC5)c3)cc(=O)c2c(OC)c1OC | 47.2 | 969 | 0.47 | 34.3 | 32.5 | 20.5 |  |  |  |  |
| COc1cc2oc(-c3ccc(OCC(=O)NCCCCNc4c5c(nc6cc(Cl)ccc46)CCCC5)cc3)cc(=O)c2c(OC)c1OC | 52.8 | 1240 | 0.58 | 30.3 |  | 23.5 |  |  |  |  |
| COc1cc2oc(-c3ccc(OCC(=O)NCCCNc4c5c(nc6cc(Cl)ccc46)CCCC5)cc3)cc(=O)c2c(OC)c1OC | 29.4 | 549 | 0.62 | 25.6 |  | 13.9 |  |  |  |  |
| COc1cc2oc(-c3cccc(OCC(=O)NCCCCNc4c5c(nc6cc(Cl)ccc46)CCCC5)c3)cc(=O)c2c(OC)c1OC | 68.2 | 1020 | 0.55 | 31.8 |  | 15 |  |  |  |  |
| COc1cc2oc(-c3ccc(O)cc3)cc(=O)c2c(OC)c1OC | > 100000 | > 100000 | 5.7 | 11.2 |  |  |  |  |  |  |
| Nc1c2c(nc3cc(Cl)ccc13)CCCC2 |  | 16.5 |  |  |  |  | 0.17 |  |  |  |
| COc1cc2oc(-c3cccc(OCC(=O)NCCCNc4c5c(nc6cc(Cl)ccc46)CCCC5)c3)cc(=O)c2c(OC)c1OC | 38.2 | 819 | 0.57 | 30.6 |  | 15.4 |  |  |  |  |
| COc1cc2oc(-c3cccc(OCC(=O)NCCCCCNc4c5c(nc6cc(Cl)ccc46)CCCC5)c3)cc(=O)c2c(OC)c1OC | 20.9 | 291 | 0.53 | 32.5 | 17.3 | 12.7 |  |  |  |  |
| COc1cc2oc(-c3ccc(OCC(=O)NCCCCCCNc4c5c(nc6cc(Cl)ccc46)CCCC5)cc3)cc(=O)c2c(OC)c1OC | 41.3 | 321 | 0.52 | 35.5 | 21.6 | 10.3 |  |  |  |  |
| COc1cc2oc(-c3ccc(OCC(=O)NCCCCCNc4c5c(nc6cc(Cl)ccc46)CCCC5)cc3)cc(=O)c2c(OC)c1OC | 12.8 | 463 | 0.55 | 33.8 | 6.9 | 36.2 |  | 45.3 | Active | 7.92 |

Reference: ChEMBL document CHEMBL3400132, “Design, synthesis and evaluation of novel 5,6,7-trimethoxyflavone-6-chlorotacrine hybrids as potential multifunctional agents for the treatment of Alzheimer's disease” (Bioorg Med Chem Lett, 2015)
